Experimental data from PubChem BioAssay (NCI).
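Tested at 5 concentrations; 48 h exposure; 96-well plates; endpoints linearly interpolated, else capped at highest concentration. TGI: concentration producing complete growth inhibition.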

Legend:
Assay in all cases: growth of human tumour cells (NCI), 48 h
[1] = system: 786-0 renal
[2] = system: A498 renal
[3] = system: A549 NSCLC
[4] = system: ACHN renal
[5] = system: CAKI-1 renal
[6] = system: CCRF-CEM leukemia
[7] = system: COLO 205 colon
[8] = system: DLD-1 colon
[9] = system: DMS 114 small cell lung
[10] = system: DMS 273 small cell lung
[11] = system: EKVX NSCLC
[12] = system: HCC-2998 colon
[13] = system: HCT-116 colon
[14] = system: HCT-15 colon
[15] = system: HL-60(TB) leukemia
[16] = system: HOP-62 NSCLC
[17] = system: HOP-92 NSCLC
[18] = system: HT29 colon
[19] = system: IGROV1 ovarian
[20] = system: K-562 leukemia
[21] = system: KM12 colon
[22] = system: KM20L2 colon
[23] = system: LOX IMVI melanoma
[24] = system: LXFL 529 NSCLC
[25] = system: M14 melanoma
[26] = system: M19-MEL melanoma
[27] = system: MALME-3M melanoma
[28] = system: MOLT-4 leukemia
[29] = system: NCI-H226 lung
[30] = system: NCI-H23 lung
[31] = system: NCI-H460 lung
[32] = system: NCI-H522 lung
[33] = system: OVCAR-3 ovarian
[34] = system: OVCAR-4 ovarian
[35] = system: OVCAR-5 ovarian
[36] = system: OVCAR-8 ovarian
[37] = system: RXF 393 renal
[38] = system: SF-268 CNS
[39] = system: SF-295 CNS
[40] = system: SF-539 CNS
[41] = system: SK-MEL-2 melanoma
[42] = system: SK-MEL-28 melanoma
[43] = system: SK-MEL-5 melanoma
[44] = system: SK-OV-3 ovarian
[45] = system: SN12C renal
[46] = system: SNB-19 CNS
[47] = system: SNB-75 CNS
[48] = system: SNB-78 CNS
[49] = system: SR leukemia
[50] = system: SW-620 colon
[51] = system: TK-10 renal
[52] = system: U251 CNS
[53] = system: UACC-257 melanoma
[54] = system: UACC-62 melanoma
[55] = system: UO-31 renal
[56] = system: RPMI-8226 leukemia
[57] = system: XF 498 CNS

CN(C)C(=O)c1ccc([N+](=O)[O-])cc1
TGI [1]: > 100 µM | TGI [2]: > 100 µM | TGI [3]: > 100 µM | TGI [4]: > 100 µM | TGI [5]: > 100 µM | TGI [6]: > 100 µM | TGI [7]: > 100 µM | TGI [8]: > 100 µM | TGI [9]: > 100 µM | TGI [10]: > 100 µM | TGI [11]: > 100 µM | TGI [12]: > 100 µM | TGI [13]: > 100 µM | TGI [14]: > 100 µM | TGI [15]: > 100 µM | TGI [16]: > 100 µM | TGI [17]: > 100 µM | TGI [18]: > 100 µM | TGI [19]: > 100 µM | TGI [20]: > 100 µM | TGI [21]: > 100 µM | TGI [22]: > 100 µM | TGI [23]: > 100 µM | TGI [24]: > 100 µM | TGI [25]: > 100 µM | TGI [26]: > 100 µM | TGI [27]: > 100 µM | TGI [28]: > 100 µM | TGI [29]: > 100 µM | TGI [30]: > 100 µM | TGI [31]: > 100 µM | TGI [32]: > 100 µM | TGI [33]: > 100 µM | TGI [34]: > 100 µM | TGI [35]: > 100 µM | TGI [36]: > 100 µM | TGI [37]: > 100 µM | TGI [38]: > 100 µM | TGI [39]: > 100 µM | TGI [40]: > 100 µM | TGI [41]: > 100 µM | TGI [42]: > 100 µM | TGI [43]: > 100 µM | TGI [44]: > 100 µM | TGI [45]: > 100 µM | TGI [46]: > 100 µM | TGI [47]: > 100 µM | TGI [48]: > 100 µM | TGI [49]: > 100 µM | TGI [50]: > 100 µM | TGI [51]: > 100 µM | TGI [52]: > 100 µM | TGI [53]: > 100 µM | TGI [54]: > 100 µM | TGI [55]: > 100 µM

COc1ccc(CC2(Cc3ccc(OC)cc3)CCOC2=O)cc1
TGI [1]: > 100 µM | TGI [2]: > 100 µM | TGI [3]: > 100 µM | TGI [4]: > 100 µM | TGI [5]: > 100 µM | TGI [6]: > 100 µM | TGI [7]: > 100 µM | TGI [8]: > 100 µM | TGI [9]: > 100 µM | TGI [11]: > 100 µM | TGI [13]: > 100 µM | TGI [15]: > 100 µM | TGI [16]: > 100 µM | TGI [17]: > 100 µM | TGI [18]: > 100 µM | TGI [19]: > 100 µM | TGI [20]: > 100 µM | TGI [21]: > 100 µM | TGI [24]: > 100 µM | TGI [25]: > 100 µM | TGI [26]: > 100 µM | TGI [27]: > 100 µM | TGI [28]: > 100 µM | TGI [29]: > 100 µM | TGI [30]: > 100 µM | TGI [31]: > 100 µM | TGI [32]: > 100 µM | TGI [33]: > 100 µM | TGI [34]: > 100 µM | TGI [35]: > 100 µM | TGI [36]: > 100 µM | TGI [56]: > 100 µM | TGI [38]: > 100 µM | TGI [39]: > 100 µM | TGI [41]: > 100 µM | TGI [42]: > 100 µM | TGI [44]: > 100 µM | TGI [45]: > 100 µM | TGI [46]: > 100 µM | TGI [47]: 48.9 µM | TGI [49]: > 100 µM | TGI [50]: > 100 µM | TGI [51]: > 100 µM | TGI [52]: > 100 µM | TGI [53]: > 100 µM | TGI [54]: > 100 µM | TGI [55]: > 100 µM | TGI [57]: 26.1 µM
